Reference: US6962971B2, “Chemokines and methods for inducing the differentiation of fibroblasts to myofibroblasts” (The Regents of the University of California, priority 2001, dated 2005)
Entries after “also recorded” stand apart in the source; their conditions may differ. Values belong to the substance of their own block, whether it stands above or below them.

Key:
[1] = tested on: primary chicken embryonic connective tissue fibroblasts; test: Fibroblast growth assay; format: cell-based; conditions: for effect on fibroblast growth / cell numbers: 3 days treatment, 2% donor calf serum
Procedure: Primary chicken embryonic connective tissue fibroblasts (CEFs) were cultured as previously described in Martins-Green and Feugate (1998). Briefly, these fibroblasts were isolated from 10-day-old chicken embryo body walls, plated at 6×10^6 cells/100 mm plate and cultured for 4 days in 199 medium with 5% donor calf serum, 1% chick serum and 0.3% tryptose phosphate broth. These cultures were passaged once (secondary cultures); the cells were plated at 0.4×10^6 cells/35 mm plate in 199/tryptose phosphate broth and 2% donor calf serum.
Secondary fibroblasts were plated at 0.4×10^6 cells/35 mm plate and cCAF was added to experimental plates. For each experiment, plating efficiency was determined by trypsinizing plates four hours after plating. Cells were counted with a Coulter particle counter to confirm even plating of cells. The media was replaced approximately every 16 hr with 1 ml of […] 199 medium containing 0.3% tryptose phosphate broth and 2% donor calf serum, and 100-1000 ng cCAF [9-90 nM] or C- or N-peptide [64-640 nM] was added to the experimental plates, whereas, control plates contained media only. On day 3, plates were trypsinized to remove all cells and cells were counted using a Coulter counter. To test for specificity, anti-cCAF rabbit serum was pre-incubated with cCAF (3 μl serum/750 ng cCAF [68 nM] or N-peptide [480 nM]) for 1 hr at room temperature before being added to cells.

[2] = tested on: α-SMA; test: Immunostaining for α-SMA in fibroblast cultures and collagen gel sections; format: cell-based, chicken; conditions: versus control gels
Procedure: Plates of fibroblasts were treated with cCAF as described previously. After 4 days, the cells were rinsed with PBS, fixed in 4% paraformaldehyde, permeabilized with 0.15% Triton X-100 and incubated with PBS containing 0.1M glycine for 10 min. Cells were blocked for 30 min with 10% goat serum in PBS, incubated with mouse anti-α-SMA, to a final IgG concentration of 20 μg/ml, in 1% BSA/PBS for 1hr at room temperature (RT), and washed three times with 0.1% BSA/PBS for 10 min each. The cells were then incubated in goat anti-mouse FITC or sheep anti-mouse Texas Red (1:100) in 1% BSA/PBS for 1 hr at RT, washed three times for 10 min with 0.1% BSA in PBS and mounted with Vectashield. Collagen gels were rinsed with PBS, fixed in 4% paraformaldehyde for 2 hr, washed three times 30 min each with PBS, and incubated for an additional 30 min in PBS containing 0.1M glycine. This treatment was followed by incubation at 4° C. overnight in 15% sucrose and then incubated under the same conditions in 30% sucrose. After a brief rinse with PBS, the gels were frozen in OCT, sections prepared and collected on gelatin-coated slides, rinsed with PBS, fixed in 4% paraformaldehyde for 10 min, and then incubated again in PBS containing 0.1M glycine for 10 min. This was followed by blocking for 30 min with 10% goat serum in PBS, incubation in primary and secondary antibody as described above, and mounting with Vectashield.

[3] = tested on: α-SMA; test: Immunoblotting for α-SMA in fibroblast extracts; format: cell-based, chicken
Procedure: Plates of fibroblasts were treated as described previously, with 750 ng/ml cCAF or 2.5 ng/ml TGFβ. To block TGFβ, or cCAF activity, anti-cCAF (3 μl) or anti-TGFβ (1 μl) antibody was pre-incubated in 1 ml media for 1 hr at room temperature before being added to cells. After 4 days of treatment, protein extracts were prepared in 1 ml 150 mM RIPA buffer containing protease inhibitors. Protein concentrations were determined using the DC protein assay kit and samples were adjusted to contain equal amounts of protein. SDS-PAGE was performed on 7.5% separating Doucet gels (Doucet and Trifaro, 1988). Protein transfer to nitrocellulose was performed using a wet-transfer apparatus (Bio-Rad) at 100V for 45 min. The membranes were blocked for 1 hr in 5% milk in TTBS and then incubated overnight at 4° C. in mouse anti-α-SMA, to a final IgG concentration of 5 μg/ml, in 1% milk in TTBS. The membranes were washed 3 times for 20 min each with TTBS, incubated in anti-mouse HRP at 1:10,000 in 1% milk for 1hr and washed as above, and the bands visualized using the ECL.

[4] = tested on: Full-thickness excision wounds on the underside of the wings of 2-week-old chicks; test: Wounding experiment: closure of excision wounds; format: in vivo, chicken; conditions: 1 μg every other day, topical; versus vehicle (H2O) on contralateral wing
Procedure: Full-thickness excision wounds (approximately 0.5×0.5 cm) were made, using a scalpel blade, on the underside of the wings of 2-week-old chicks. The left wing was treated with vehicle alone (water), and the right wing with […] cCAF [90 nM]. The wounds were photographed immediately after wounding and then covered with Biocclusive bandage. 50 μl vehicle (water) or cCAF was deposited through the bandage onto the wound using a 30-gauge needle. This procedure was repeated the next day and every other day thereafter. On days 3, 5 and 7, the bandages were removed and the wounds were photographed before replacing the bandages and applying the treatment again.

[5] = tested on: chicken CXC receptor 1 (CXCR1); test: Chicken cCXCR1-mediated calcium release; format: cell-based; conditions: NIH #373 cells overexpressing chicken CXCR1
Procedure: NIH #373 cells overexpressing the chicken CXC receptor 1 (CXCR1) were exposed to the full-length cCAF molecule, the 15-amino N-terminal peptide of cCAF, or the 28-amino acid C-terminal peptide and calcium release was then measured.

[6] = tested on: fibroblast-seeded collagen gels; test: Collagen gel contraction by fibroblasts; format: cell-based, chicken
Procedure: 1.5 ml Vitrogen 100 collagen gels were made in 35 mm plates. Secondary fibroblasts were plated at 0.4×10^6 cells/35 mm plate on top of the gels. After the cells had adhered to the collagen, cCAF was added to experimental plates. The medium was replaced approximately every 16 hr with 1 ml of 199 supplemented with 0.3% tryptose phosphate broth and 2% donor calf serum, and 750 ng cCAF [68 nM] or N-peptide [480 nM] was added to the experimental plates. Control plates contained media only. After 4 days, gels were released. Treatment was continued for 2 more days and gels were photographed every 12 hours. The photographs were used for evaluation of gel contraction by determining the area of the gel using NIH image analysis.

[7] = tested on: fibroblasts; test: Induction of differentiation of fibroblasts to myofibroblasts by IL-8 forms; format: cell-based; conditions: IL-8-77 versus IL-8-72
[8] = tested on: chicken chorioallantoic membrane (CAM); conditions: in vivo; cited from earlier work

calcium release ([5]; 400 ng): similar, albeit somewhat slower, release
Substance: LSQGRTLVKMGNELR (Gallusgallus) [N-peptide, 15-amino acid N-terminal peptide of cCAF]
effect on fibroblast growth / cell numbers [1]: suppresses the growth of fibroblasts to a level similar to that caused by the whole cCAF molecule; also recorded: decrease in growth similar to that induced by cCAF
dose- and time-dependent pattern of suppression of growth ([1]; compared with whole cCAF, not shown): same as that of the whole cCAF molecule, albeit at a higher molar concentration
α-SMA immunolabeling of sections of fibroblast-seeded collagen gels [2]: more cells with fibers staining for α-SMA than control gels
α-SMA levels by immunoblot ([3]; 750 ng/ml, versus untreated or C-peptide treated cells): much higher levels of α-SMA; also recorded: increased levels of α-SMA
wound closure at day 3 (days 0-3) [4]: accelerated wound closure during days 0-3, albeit less strongly than with the whole cCAF molecule
contraction of collagen gels after release ([6]; 750 ng/ml, 4-5 days treatment before release, versus untreated cells): much greater contraction; also recorded: stimulated fibroblasts to contract collagen gels more efficiently than untreated cells; also recorded: contracted the gels more tightly than did untreated cells
contraction of fibroblast clusters on collagen ([6]; versus control cells): form clusters that are much tighter and generally pull away from the collagen; also recorded: more contracted than clusters in control cells

Substance: TGFβ: Transforming Growth Factorβ-1, known stimulator of myofibroblast differentiation [reference compound]
α-SMA expression after TGFβ treatment ([3]; 2.5 ng/ml): stimulation of α-SMA

Substance: IL-8-77: 77-residue form of human interleukin-8, SEQ ID NO:4
potency at inducing differentiation of fibroblasts to myofibroblasts, relative to the other IL-8 form [7]: more potent at inducing differentiation of fibroblasts to myofibroblasts

calcium release ([5]; 400 ng): failed to induce calcium release
Substance: C-peptide: 28-amino acid peptide extending from residues 59-86 of cCAF (SEQ ID NO:2) (CLDPTAPWVQLIVKALMAKAQLNSDAPL; Gallusgallus) [reference compound]
effect on fibroblast growth / cell numbers [1]: did not suppress the growth of connective tissue fibroblasts
effect on fibroblast growth / cell numbers ([1]; listed as C-terminal peptide): did not cause a decrease in cell numbers
calcium release ([5]; 800 ng): release of calcium that was similar in magnitude, but differed in time course from the N-peptide-induced release
angiogenic activity of the peptide by itself [8]: angiogenic in vivo
